Test results taken from patent US20240207374A1, “LIPID NANOPARTICLES CONTAINING POLYNUCLEOTIDES ENCODING GLUCOSE-6-PHOSPHATASE AND USES THEREOF” (ModernaTX, Inc., priority 2021, published 2024).

Experiment: Residual parent lipid levels in the liver of mice (hEPO mRNA LNP)
Format: in vivo
Details: CD-1 mice

Row | SMILES | Parent Lipid Remaining at 24 h [nmol/g liver tissue]
1 | CCCCCC(CCCCC)CCCOC(=O)CCCCCCCN(CCCCCCCC(=O)OCCCC(CCCCC)CCCCC)CCCNc1c(NC)c(=O)c1=O [Compound 34] | 12 ± 2
2 | CCCC(CCC)CCOC(=O)CCCCCCCN(CCCCCCCC(=O)OCCC(CCC)CCC)CCCNc1c(NC)c(=O)c1=O [Compound 53] | <1
3 | CCCCC(CCCC)CCOC(=O)CCCCCCCN(CCCCCCCC(=O)OC(CCCC)CCCC)CCCNc1c(NC)c(=O)c1=O [Compound 62] | 1.8 ± 0.6
4 | CCCCCCC(CCCCCC)CCOC(=O)CCCCCCCN(CCCCCCCC(=O)OCCC(CCCCCC)CCCCCC)CCCNc1c(NC)c(=O)c1=O [Compound 28] | 58 ± 7
5 | CCCCCC(CCCCC)CCOC(=O)CCCCCCCN(CCO)CCCCCCCC(=O)OCCC(CCCCC)CCCCC [Compound 25] | 0.1 ± 0.04
6 | CCCCCCCCC(CCCCCCCC)OC(=O)CCCCCCCN(CCO)CCCCCCCC(=O)OCCC(CCCC)CCCC [Compound 22, 3-Butylheptyl 8-((8-(heptadecan-9-yloxy)-8-oxooctyl)(2-hydroxyethyl)amino)octanoate] | <0.1
7 | CCCCCCCCC(CCCCCC)COC(=O)CCCCCN(CCCCCCCC(=O)OC(CC)CCCCCCCC)CCCNc1c(NC)c(=O)c1=O (stereo not shown) [Compound 15] | 51 ± 4
8 | CCCCCC(CCCCC)CCOC(=O)CCCCCCCN(CCCCCCCC(=O)OC(CCCCC)CCCCC)CCCNc1c(NC)c(=O)c1=O [Compound 57] | 12 ± 1
9 | CCCCCCCCC(CCCCCCCC)OC(=O)CCCCCCCN(CCCCCCCC(=O)OCCC(CCCC)CCCCCC)CCCNc1c(NC)c(=O)c1=O (stereo not shown) [Compound 20] | 65 ± 5
10 | CCCCCC(CCCCC)CCOC(=O)CCCCCCCN(CCCCCCCC(=O)OCCC(CCCC)CCCC)CCCNc1c(NC)c(=O)c1=O [Compound 54, 3-Butylheptyl 8-((3-((2-(methylamino)-3,4-dioxocyclobut-1-en-1-yl)amino)propyl)(8-oxo-8-((3-pentyloctyl)oxy)octyl)amino)octanoate] | 12 ± 1
11 | CCCCC(CCCC)OC(=O)CCCCCCCN(CCCCCCCC(=O)OCCC(CCC)CCC)CCCNc1c(NC)c(=O)c1=O [Compound 66] | 0.1 ± 0.03
12 | CCCCCCCCC(CCCCCCCC)OC(=O)CCCCCCCN(CCCCCCCC(=O)OCCC(CCCC)CCCC)CCCNc1c(NC)c(=O)c1=O [Compound 27, 3-Butylheptyl 8-((8-(heptadecan-9-yloxy)-8-oxooctyl)(3-((2-(methylamino)-3,4-dioxocyclobut-1-en-1-yl)amino)propyl)amino)octanoate] | 27 ± 4
13 | CCCCCCCCC(CCCCCCCC)OC(=O)CCCCCCCN(CCCCCCCC(=O)OCCC(CCCCC)CCCCC)CCCNc1c(NC)c(=O)c1=O [Compound 29] | 66 ± 16
14 | CCCCCC(CCCCC)CCOC(=O)CCCCCCCN(CCCCCCCC(=O)OCCC(CCC)CCC)CCCNc1c(NC)c(=O)c1=O [Compound 51] | 4 ± 0.6
15 | CCCCCCCCC(CCCCCCCC)OC(=O)CCCCCCCN(CCO)CCCCCCCC(=O)OCCC(CCCC)CCCCCC (stereo not shown) [Compound 7] | 0.3 ± 0.2
16 | CCCCCCCCC(CCCCCCCC)OC(=O)CCCCCCCN(CCO)CCCCCCCC(=O)OCCC1CCC(CC)CC1 (stereo not shown) [Compound 35] | <0.1
17 | CCCCCCCC(CCCCCCC)OC(=O)CCCCCCCN(CCCCCCCC(=O)OCCC(CCC)CCC)CCCNc1c(NC)c(=O)c1=O [Compound 63] | 8.9 ± 2.8
18 | CCCCCCCCC(CCCCCCCC)OC(=O)CCCCCCCN(CCCCCCCC(=O)OCC(CCCCC)CCCCCCC)CCCNc1c(NC)c(=O)c1=O (stereo not shown) [Compound 16] | 77 ± 3
19 | CCCCCC(CCCCC)OC(=O)CCCCCCCN(CCCCCCCC(=O)OCCC(CCC)CCC)CCCNc1c(NC)c(=O)c1=O [Compound 65] | 0.9 ± 0.3

Row | SMILES | Parent Lipid Remaining at 24 h [nmol/g liver tissue]
20 | CCCCCC(CCCCC)CCCOC(=O)CCCCCCCN(CCO)CCCCCCCC(=O)OCCCC(CCCCC)CCCCC [Compound 33] | 0.5 ± 0.3
21 | CCCCCCC(CCCCCC)CCOC(=O)CCCCCCCN(CCO)CCCCCCCC(=O)OCCC(CCCCCC)CCCCCC [Compound 23] | 24 ± 3
22 | CCCCCCCCC(CCCCCCCC)OC(=O)CCCCCCCN(CCCCCCCC(=O)OCCCC(CCCCC)CCCCC)CCCNc1c(NC)c(=O)c1=O [Compound 32] | 69 ± 17
23 | CCCCCCCCC(CCCCCCCC)OC(=O)CCCCCCCN(CCO)CCCCCCCC(=O)OCCC(CCCCC)CCCCC [Compound 24] | 3 ± 1
24 | CCCCCC(CCCCC)CCOC(=O)CCCCCCCN(CCCCCCCC(=O)OC(CCCC)CCCC)CCCNc1c(NC)c(=O)c1=O [Compound 58] | 15 ± 2
25 | CCCCC(CCCC)CCOC(=O)CCCCCCCN(CCCCCCCC(=O)OCCC(CCC)CCC)CCCNc1c(NC)c(=O)c1=O [Compound 52] | <1
26 | CCCCCCC(CCCCCC)OC(=O)CCCCCCCN(CCCCCCCC(=O)OCCC(CCC)CCC)CCCNc1c(NC)c(=O)c1=O [Compound 64] | 4.9 ± 0.9
27 | CCCCCC(CCCCC)OC(=O)CCCCCCCN(CCCCCCCC(=O)OCCC(CCCC)CCCC)CCCNc1c(NC)c(=O)c1=O [Compound 61] | 5.1 ± 0.8
28 | CCCCCC(CCCCC)CCOC(=O)CCCCCCCN(CCCCCCCC(=O)OCCC(CCCCC)CCCCC)CCCNc1c(NC)c(=O)c1=O [Compound 30, Bis(3-pentyloctyl) 8,8′-((3-((2-(methylamino)-3,4-dioxocyclobut-1-en-1-yl)amino)propyl)azanediyl)dioctanoate] | 25 ± 4
29 | CCCCCCCCC(CCCCCCCC)OC(=O)CCCCCCCN(CCCCCCCC(=O)OCCC(CCCCCC)CCCCCC)CCCNc1c(NC)c(=O)c1=O [Compound 26] | 141 ± 15
30 | CCCCCCCCC(CCCCCCCC)OC(=O)CCCCCCCN(CCCCCCCC(=O)OCCC(CCCCCC)C(C)C)CCCNc1c(NC)c(=O)c1=O (stereo not shown) [Compound 17] | 35 ± 5
31 | CCCCCCCCC(CCCCCCCC)OC(=O)CCCCCCCN(CCCCCCCC(=O)OCC(CCCCCCC)C(C)C)CCCNc1c(NC)c(=O)c1=O (stereo not shown) [Compound 19] | 73 ± 6
32 | CCCCCCCCC(CCCCCCCC)OC(=O)CCCCCCCN(CCO)CCCCCCCC(=O)OCCC1CCC(CC)C1 (stereo not shown) [Compound 37] | <0.1
33 | CCCCCCC(CCCCCC)OC(=O)CCCCCCCN(CCCCCCCC(=O)OCCC(CCCC)CCCC)CCCNc1c(NC)c(=O)c1=O [Compound 60] | 8.5 ± 0.6
34 | CCCCCCCCC(CCCCCCCC)OC(=O)CCCCCCCN(CCCCCCCC(=O)OCCC1CCC(CCC)CC1)CCCNc1c(NC)c(=O)c1=O (stereo not shown) [Compound 39] | 4 ± 1
35 | CCCCCCCCC(CCCCCCCC)OC(=O)CCCCCCCN(CCCCCCCC(=O)OCCC1CCC(CC)C1)CCCNc1c(NC)c(=O)c1=O (stereo not shown) [Compound 40] | 3 ± 0.3
36 | CCCCCCCCC(CCCCCCCC)COC(=O)CCCCCN(CCCCCCCC(=O)OC(CC)CCCCCCCC)CCCNc1c(NC)c(=O)c1=O (stereo not shown) [Compound 14] | 56 ± 6
37 | CCCCCCCCC(CCCCCCCC)OC(=O)CCCCCCCN(CCO)CCCCCCCC(=O)OCCCC(CCCCC)CCCCC [Compound 31] | 2 ± 0.6
